Assay results: patent US10584122B2, “Solid forms of a compound modulating kinases” (Plexxikon Inc., priority 2015, dated 2020)
Read-outs that look alike come from different tables or passages of the source.

Assays:
[1] = Physical stability, stress experiments (temperature/RH) with XRPD; format: physicochemical; details: for Physical stability (overall finding): at the conditions investigated, HCl salt
[2] = Dynamic vapor sorption/desorption (DVS); format: physicochemical; details: for Solid form after DVS, by XRPD: after sorption/desorption; for DVS weight loss upon equilibration: equilibration at 5% RH
Excerpt: Moisture sorption/desorption data were collected on a VTI SGA-100 Vapor Sorption Analyzer under a nitrogen purge. […] Data were not corrected for the initial moisture content of the samples. Sodium chloride and polyvinypyrrolidine were used as calibration standards.

[3] = Slurry experiment, form conversion by XRPD; format: physicochemical; details: slurried in ethanol for 21 days
Protocol: Solutions were prepared by adding enough solids to a given solvent so that excess solids were present. The mixture was then agitated in a sealed vial at either ambient or a set temperature.

[4] = physchem; details: water, thermodynamic from solid

SMILES: Cl.FC(F)(F)c1ccc(CNc2ccc(Cc3c[nH]c4ncc(Cl)cc34)cn2)cn1 [Compound I Form A, [5-(5-chloro-1H-pyrrolo[2,3-b]pyridin-3-ylmethyl)-pyridin-2-yl]-(6-trifluoromethyl-pyridin-3-ylmethyl)-amine HCl salt]
- XRPD Result (solid form after stress) ([1]; 40° C./75% RH/14 d): A + C
- XRPD Result (solid form after stress) ([1]; 80° C./7 d (<<100 mg)): converted to Form C
- XRPD Result (solid form after stress) ([1]; RT/85% RH/14 d): A + minor C
- Physical stability (overall finding) ([1]; listed as Form A): physically metastable
- Form conversion on exposure to elevated humidity ([1]; elevated humidity): partial conversion to Form C
- DVS additional weight gain, sorption step ([2]; above 75% RH): 1.7%
- Solid form after DVS, by XRPD ([2]; listed as Form A, HCl salt): Form A
- DVS weight gain, sorption step ([2]; from 5% to 75% RH): 0.6%
- Hygroscopicity (DVS isotherm) ([2]; listed as Form A, HCl salt): hygroscopic
- Form conversion on slurry [3]: complete conversion to Form C
- solubility [4]: < 2000 µg/mL

SMILES: Cl.FC(F)(F)c1ccc(CNc2ccc(Cc3c[nH]c4ncc(Cl)cc34)cn2)cn1 [Compound I Form B, [5-(5-chloro-1H-pyrrolo[2,3-b]pyridin-3-ylmethyl)-pyridin-2-yl]-(6-trifluoromethyl-pyridin-3-ylmethyl)-amine HCl salt]
- Form conversion on heating ([1]; about 150° C. for about 5 minutes): Desolvation/conversion to Form C

SMILES: Cl.FC(F)(F)c1ccc(CNc2ccc(Cc3c[nH]c4ncc(Cl)cc34)cn2)cn1 [Compound I Form C, [5-(5-chloro-1H-pyrrolo[2,3-b]pyridin-3-ylmethyl)-pyridin-2-yl]-(6-trifluoromethyl-pyridin-3-ylmethyl)-amine HCl salt]
- Physical stability (overall finding) ([1]; listed as Form C): more physically stable than Form A
- Solid form after DVS, by XRPD ([2]; listed as Form C, HCl salt): remained unchanged
- DVS weight gain, sorption step ([2]; from 5% to 95% RH): 0.96%
- Hygroscopicity (DVS isotherm) ([2]; listed as Form C, HCl salt): less hygroscopic than Form A

SMILES: CO.Cl.FC(F)(F)c1ccc(CNc2ccc(Cc3c[nH]c4ncc(Cl)cc34)cn2)cn1 [Compound I Form D, [5-(5-chloro-1H-pyrrolo[2,3-b]pyridin-3-ylmethyl)-pyridin-2-yl]-(6-trifluoromethyl-pyridin-3-ylmethyl)-amine HCl salt methanol solvate]
- Form conversion on heating ([1]; 80° C. for 15 minutes): desolvated to Form A
- Form conversion on heating ([1]; continued exposure to 80° C. for 2 days): converted to Form C
- DVS weight loss, desorption phase ([2]; desorption phase): 0.9%
- DVS weight loss upon equilibration [2]: approximately 5.3%
- DVS weight gain, sorption phase ([2]; sorption phase): 0.9%

SMILES: FC(F)(F)c1ccc(CNc2ccc(Cc3c[nH]c4ncc(Cl)cc34)cn2)cn1 [Compound II, [5-(5-chloro-1H-pyrrolo[2,3-b]pyridin-3-ylmethyl)-pyridin-2-yl]-(6-trifluoromethyl-pyridin-3-ylmethyl)-amine]
- Hygroscopicity (DVS isotherm) [2]: hygroscopic
- DVS weight loss upon equilibration [2]: 0.3-0.4%
- DVS weight gained ([2]; from 45% to 95% RH): ~21.6%
